Test results as given in PubChem BioAssay AID1963840 (Molecular Pharmacology Branch, DTP, NCI, 2024).

System: 695427-040-R-J1-PDC complex spheroid viability
Assay: Anticancer human tumor 695427-040-R-J1-PDC patient-derived colon adenocarcinoma cell line growth inhibition [POLQ]
Details: for IC50: curve of first compound; for viability, T/C: stronger effect = lower value
Procedure: Multicellular complex tumor spheroid response to Polymerase (POL) inhibitors (novobiocin, ART-558, RP6685) in combination with a variety of drugs and investigational agents in selected tumor cell lines
The POL inhibitors (novobiocin, ART-558, and RP6685) were evaluated both individually and in combination with standard of care and investigational anticancer small molecules within a complex spheroid model of solid tumors. . Complex spheroids include a stromal component modeled by human endothelial cells (HUVEC) and fibroblasts modeled by human mesenchymal stem cells (MSCs). The concentration ranges selected for each drug and investigational agent were based upon clinically achievable concentrations if the clinical Cmax of the agent was known.
Compounds. The drugs and investigational agents: novobiocin (NSC847541), ART-558 (NSC835418), RP-6685 (NSC848927), peposertib (NSC802822), ceralasertib (NSC780249), elimusertib (NSC800525), camonsertib (NSC841442), AZD-1390 (NSC803789), olaparib (NSC753686), talazoparib (NSC767125), rucaparib (NSC756644), sotorasib (NSC818433), MRTX-1133 (NSC836407), SN-38 (NSC673596), topotecan (NSC609699), epotoside (NSC141540), doxorubicin (NSC123127), gemcitabine (NSC613327), 5-fluorouracil (NSC19893), paclitaxel (NSC125973), vemurafenib (NSC761431), MSA-2 (NSC828583), SN-011 (NSC837082), adavosertib (NSC754352), prexasertib (NSC758257), carboplatin (NSC241240) and oxaliplatin (NSC266046), were obtained from the National Cancer Institute (NCI) Developmental Therapeutics Program Chemical Repository (21). The FDA-approved anticancer drug set is available from the Developmental Therapeutics Program at https://dtp.cancer.gov/organization/dscb/obtaining/. […] The stock solutions were prepared in dimethyl sulfoxide (DMSO, Sigma-Aldrich, St. Louis, MO, cat. D2650), except for the platinum compounds which were prepared in saline (Quality Biological, Gaithersburg, MD, cat. 114-055-101), at 800-fold the tested concentration and stored at -70 degrees C prior to their use. All drugs and investigational agents were tested over a range starting from a high concentration at or near the clinical Cmax and decreasing in half-log increments. If the clinical Cmax for an agent had not been determined, the highest concentration tested was 10 microM, except for SN-38, which was tested at a high concentration of 1 microM.
Cell Culture. All cells were maintained in an incubator at 37 degrees C and 5% CO2 with 95% humidity. The PDC lines were cultured according to standard operating procedures established by the NCI PDMR (https://pdmr.cancer.gov). Table 3 of the manuscript, lists the cell lines along with the number of the three cell types plated to form the mct-spheroids and media for tumor cell growth. After thawing, all PDC lines, except 997537-175-T-J1-PDC and 415267-285-R-J2-PDC, were cultured in Matrigel-coated flasks prepared with a working solution of 1X Ham's F-12 nutrient mix, without supplementation (Thermo Fisher Scientific, cat. 11765054), 100 U/mL penicillin-streptomycin (Thermo Fisher Scientific, cat. 15140122), and 2.5% Matrigel (Corning Inc., Corning, NY, cat. 354248) for the first three passages. The two PDC lines 997537-175-T-J1-PDC and 415267-285-R-J2-PDC were cultured on uncoated flasks. The 857933-349-R-J2-PDC line was cultured in 6C/Colon 1B media containing advanced DMEM/F-12 (Thermo Fisher Scientific, cat. 12634028), 10 mM HEPES (Thermo Fisher Scientific, cat. 15630080), 1X GlutaMAX supplement (Thermo Fisher Scientific, cat. 35050061), 0.1 mg/mL primocin (InvivoGen, San Diego, CA, cat. ant-pm-2), 10% defined fetal bovine serum, heat inactivated (HyClone Laboratories Inc., Logan, UT, cat. SH30070.03HI), 50% L-WRN conditioned media (ATCC, cat. CRL-3276), 1.25 mM N-Acetyl-L-cysteine (Sigma-Aldrich, cat. A9165), 10 mM nicotinamide (Sigma-Aldrich, cat. N0636), 1X B-27 supplement (Thermo Fisher Scientific, cat. 17504044), 1X N-2 supplement (Thermo Fisher Scientific, cat. […]

[1] = second compound 0.0316 µM, first compound 0.0316 µM
[2] = second compound 0.0316 µM, first compound 0.1 µM
[3] = second compound 0.0316 µM, first compound 0.316 µM
[4] = second compound 0.0316 µM, first compound 1 µM
[5] = second compound 0.0316 µM, first compound 3.16 µM
[6] = second compound 0.0316 µM, first compound 10 µM
[7] = second compound 0.1 µM, first compound 0.0316 µM
[8] = second compound 0.1 µM, first compound 0.1 µM
[9] = second compound 0.1 µM, first compound 0.316 µM
[10] = second compound 0.1 µM, first compound 1 µM
[11] = second compound 0.1 µM, first compound 3.16 µM
[12] = second compound 0.1 µM, first compound 10 µM
[13] = second compound 0.316 µM, first compound 0.0316 µM
[14] = second compound 0.316 µM, first compound 0.1 µM
[15] = second compound 0.316 µM, first compound 0.316 µM
[16] = second compound 0.316 µM, first compound 1 µM
[17] = second compound 0.316 µM, first compound 3.16 µM
[18] = second compound 0.316 µM, first compound 10 µM
[19] = second compound 1 µM, first compound 0.0316 µM
[20] = second compound 1 µM, first compound 0.1 µM
[21] = second compound 1 µM, first compound 0.316 µM
[22] = second compound 1 µM, first compound 1 µM
[23] = second compound 1 µM, first compound 3.16 µM
[24] = second compound 1 µM, first compound 10 µM
[25] = second compound 3.16 µM, first compound 0.0316 µM
[26] = second compound 3.16 µM, first compound 0.1 µM
[27] = second compound 3.16 µM, first compound 0.316 µM
[28] = second compound 3.16 µM, first compound 1 µM
[29] = second compound 3.16 µM, first compound 3.16 µM
[30] = second compound 3.16 µM, first compound 10 µM
[31] = second compound 10 µM, first compound 0.0316 µM
[32] = second compound 10 µM, first compound 0.1 µM
[33] = second compound 10 µM, first compound 0.316 µM
[34] = second compound 10 µM, first compound 1 µM
[35] = second compound 10 µM, first compound 3.16 µM
[36] = second compound 10 µM, first compound 10 µM
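Further: spheroids exposed to compounds for seven days.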
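Wherever viability, T/C is given: 100% = DMSO vehicle control viability.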

## CC1COCCN1c1cc(-c2ccnn2C)c2ccnc(-c3ccn[nH]3)c2n1 (centres undefined) + COC1C(OC(N)=O)C(O)C(Oc2ccc3c(O)c(NC(=O)c4ccc(O)c(CC=C(C)C)c4)c(=O)oc3c2C)OC1(C)C
Second compound 0.0316 µM
  IC50: 1.21 µM
Second compound 0.1 µM
  IC50: 1.13 µM
Second compound 0.316 µM
  IC50: 1.56 µM
Second compound 1 µM
  IC50: 0.748 µM
Second compound 3.16 µM
  IC50: 1.21 µM
Second compound 10 µM
  IC50: 1.47 µM
[1]
  viability, T/C: 97.2%
[2]
  viability, T/C: 83.3%
[3]
  viability, T/C: 63.5%
[4]
  viability, T/C: 50.3%
[5]
  viability, T/C: 47%
[6]
  viability, T/C: 44.8%
[7]
  viability, T/C: 97.5%
[8]
  viability, T/C: 81.1%
[9]
  viability, T/C: 64.2%
[10]
  viability, T/C: 49.9%
[11]
  viability, T/C: 44.3%
[12]
  viability, T/C: 44.7%
[13]
  viability, T/C: 104%
[14]
  viability, T/C: 79.7%
[15]
  viability, T/C: 61.4%
[16]
  viability, T/C: 51.2%
[17]
  viability, T/C: 48.5%
[18]
  viability, T/C: 44.6%
[19]
  viability, T/C: 93.5%
[20]
  viability, T/C: 85.9%
[21]
  viability, T/C: 58.2%
[22]
  viability, T/C: 49.4%
[23]
  viability, T/C: 46.6%
[24]
  viability, T/C: 41.8%
[25]
  viability, T/C: 95.8%
[26]
  viability, T/C: 86.8%
[27]
  viability, T/C: 63.3%
[28]
  viability, T/C: 52.1%
[29]
  viability, T/C: 47.6%
[30]
  viability, T/C: 44.7%
[31]
  viability, T/C: 90.8%
[32]
  viability, T/C: 80.6%
[33]
  viability, T/C: 65.9%
[34]
  viability, T/C: 47.5%
[35]
  viability, T/C: 51%
[36]
  viability, T/C: 46.2%

## CCCS(=O)(=O)Nc1ccc(F)c(C(=O)c2c[nH]c3ncc(-c4ccc(Cl)cc4)cc23)c1F + COC1C(OC(N)=O)C(O)C(Oc2ccc3c(O)c(NC(=O)c4ccc(O)c(CC=C(C)C)c4)c(=O)oc3c2C)OC1(C)C
Second compound 0.0316 µM
  IC50: > 10 µM
Second compound 0.1 µM
  IC50: > 10 µM
Second compound 0.316 µM
  IC50: > 10 µM
Second compound 1 µM
  IC50: > 10 µM
Second compound 3.16 µM
  IC50: > 10 µM
Second compound 10 µM
  IC50: > 10 µM
[1]
  viability, T/C: 102%
[2]
  viability, T/C: 102%
[3]
  viability, T/C: 98.2%
[4]
  viability, T/C: 111%
[5]
  viability, T/C: 116%
[6]
  viability, T/C: 80.7%
[7]
  viability, T/C: 103%
[8]
  viability, T/C: 94.3%
[9]
  viability, T/C: 108%
[10]
  viability, T/C: 111%
[11]
  viability, T/C: 107%
[12]
  viability, T/C: 78.6%
[13]
  viability, T/C: 106%
[14]
  viability, T/C: 98.1%
[15]
  viability, T/C: 97%
[16]
  viability, T/C: 105%
[17]
  viability, T/C: 118%
[18]
  viability, T/C: 88.7%
[19]
  viability, T/C: 102%
[20]
  viability, T/C: 108%
[21]
  viability, T/C: 102%
[22]
  viability, T/C: 109%
[23]
  viability, T/C: 107%
[24]
  viability, T/C: 81.7%
[25]
  viability, T/C: 110%
[26]
  viability, T/C: 107%
[27]
  viability, T/C: 100%
[28]
  viability, T/C: 106%
[29]
  viability, T/C: 109%
[30]
  viability, T/C: 79.4%
[31]
  viability, T/C: 107%
[32]
  viability, T/C: 102%
[33]
  viability, T/C: 91.8%
[34]
  viability, T/C: 113%
[35]
  viability, T/C: 116%
[36]
  viability, T/C: 77%
